Assay results reported in patent US20240034724A1, “THERAPEUTIC COMPOUNDS USEFUL FOR THE PROPHYLACTIC OR THERAPEUTIC TREATMENT OF AN HIV VIRUS INFECTION” (Gilead Sciences, Inc., priority 2022, published 2024).

Experiments:
[1] = Test B: Cytotoxicity Assay in MT-4 Cells; assay type: cell-based; conditions: human, uninfected MT-4 cells, CellTiter-Glo
Protocol: (§1) For the MT-4 antiviral assay, 50 μL of 3-fold serially diluted compound in complete RPMI medium was added to each well of a 384-well plate (10 concentrations) in quadruplicate. MT-4 cells were infected with HIV-1 (IIIb strain) at a multiplicity of infection (m.o.i.) of ˜0.005 for 1 hour at 37° C. and 20 μL of virus/cell mixture (˜2,000 cells) was added to each well of the assay plate containing 50 μL of diluted compound. A positive control (1 μM azidothymidine, AZT) and a negative control (dimethyl sulfoxide, DMSO) were included in every assay plate to define 100% and 0% protection, respectively. The final DMSO concentration in the assay was 0.5%. The plates were then incubated at 37° C. for 5 days. At the end of the incubation, 30 μL of CellTiter-Glo reagent (Promega Madison, WI) was added to each well of the assay plates. Cell lysis was carried out by incubating the assay plates at room temperature for 10 minutes followed by the quantification of chemiluminescence signal using an EnVision plate reader (Perkin Elmer, Shelton, CT). Antiviral dose response data were normalized to positive and negative controls in each plate and analyzed by curve fitting after conversion of the data to % cell death to determine the half-maximal effective concentration (EC50) value, defined as the compound concentration that caused a 50% protection from cytopathic effect (CPE)-dependent virus-induced cell death. Test B: Cytotoxicity Assay in MT-4 Cells Compound cytotoxicity and the corresponding half-maximal cytotoxicity concentration (CC50) values was determined using the same protocol as described in the antiviral assay (Test A) except that uninfected cells were used and the data were normalized to the 100% viability control (DMSO) wells on each plate.

HIV-1 (IIIb strain) = assay: Test A: Antiviral Assay in the Human MT-4 T-Lymphoblastoid Cell Line; assay type: cell-based; conditions: Human immunodeficiency virus 1, MT4, 120 h; MT-4 cells infected with HIV-1 IIIb, 5 days, CellTiter-Glo, protection from virus-induced cell death
Protocol: Test A: Antiviral Assay in the Human MT-4 T-Lymphoblastoid Cell Line
as §1, with “death.” for “death. Test B: Cytotoxicity Assay in MT-4 Cells Compound cytotoxicity and the corresponding half-maximal cytotoxicity concentration (CC50) values was determined using the same protocol as described in the antiviral assay (Test A) except that uninfected cells were used and the data were normalized to the 100% viability control (DMSO) wells on each plate.”

Row | SMILES | CC50 at 5 days [1] [µM] | EC50 (HIV-1 (IIIb strain)) [nM]
1 | CC(C)(O)C#Cc1ccc(-c2ccc(Cl)c3c(NS(C)(=O)=O)nn(CC(F)(F)F)c23)c([C@H](Cc2cc(F)cc(F)c2)NC(=O)Cn2nc(C(F)(F)F)c3c2C(F)(F)[C@@H]2C[C@H]32)n1 [Example 1, N—((S)-1-(3-(4-chloro-3-(methylsulfonamido)-1-(2,2,2-trifluoroethyl)-1H-indazol-7-yl)-6-(3-hydroxy-3-methylbut-1-yn-1-yl)pyridin-2-yl)-2-(3,5-difluorophenyl)ethyl)-2-((3bS,4aR)-5,5-difluoro-3-(trifluoromethyl)-3b,4,4a,5-tetrahydro-1H-cyclopropa[3,4]cyclopenta[1,2-c]pyrazol-1-yl)acetamide] | 3.61 | 0.34
2 | C=C(C)C#Cc1ccc(-c2ccc(Cl)c3c(NS(C)(=O)=O)nn(CC(F)(F)F)c23)c([C@H](Cc2cc(F)cc(F)c2)NC(=O)Cn2nc(C(F)(F)F)c3c2C(F)(F)[C@@H]2C[C@H]32)n1 [Example 2, N—((S)-1-(3-(4-chloro-3-(methylsulfonamido)-1-(2,2,2-trifluoroethyl)-1H-indazol-7-yl)-6-(3-methylbut-3-en-1-yn-1-yl)pyridin-2-yl)-2-(3,5-difluorophenyl)ethyl)-2-((3bS,4aR)-5,5-difluoro-3-(trifluoromethyl)-3b,4,4a,5-tetrahydro-1H-cyclopropa[3,4]cyclopenta[1,2-c]pyrazol-1-yl)acetamide] | 8.74 | 18
3 | CC(C)C#Cc1ccc(-c2ccc(Cl)c3c(NS(C)(=O)=O)nn(CC(F)(F)F)c23)c([C@H](Cc2cc(F)cc(F)c2)NC(=O)Cn2nc(C(F)(F)F)c3c2C(F)(F)[C@@H]2C[C@H]32)n1 [Example 3, N—((S)-1-(3-(4-chloro-3-(methylsulfonamido)-1-(2,2,2-trifluoroethyl)-1H-indazol-7-yl)-6-(3-methylbut-1-yn-1-yl)pyridin-2-yl)-2-(3,5-difluorophenyl)ethyl)-2-((3bS,4aR)-5,5-difluoro-3-(trifluoromethyl)-3b,4,4a,5-tetrahydro-1H-cyclopropa[3,4]cyclopenta[1,2-c]pyrazol-1-yl)acetamide] | 7.5 | 21
4 | CN(c1nn(CC(F)(F)F)c2c(-c3ccc(C#CC(C)(C)S(C)(=O)=O)nc3[C@H](Cc3cc(F)cc(F)c3)NC(=O)Cn3nc(C(F)(F)F)c4c3C(F)(F)[C@@H]3C[C@H]43)ccc(Cl)c12)S(C)(=O)=O [Example 4, N—((S)-1-(3-(4-chloro-3-(N-methylmethylsulfonamido)-1-(2,2,2-trifluoroethyl)-1H-indazol-7-yl)-6-(3-methyl-3-(methylsulfonyl)but-1-yn-1-yl)pyridin-2-yl)-2-(3,5-difluorophenyl)ethyl)-2-((3bS,4aR)-5,5-difluoro-3-(trifluoromethyl)-3b,4,4a,5-tetrahydro-1H-cyclopropa[3,4]cyclopenta[1,2-c]pyrazol-1-yl)acetamide] | > 50 | 8.3
5 | CC(C)(C#Cc1ccc(-c2cccc3c(NS(C)(=O)=O)nn(CC(F)(F)F)c23)c([C@H](Cc2cc(F)cc(F)c2)NC(=O)Cn2nc(C(F)(F)F)c3c2C(F)(F)[C@@H]2C[C@H]32)n1)S(C)(=O)=O [Example 5, 2-((3bS,4aR)-5,5-difluoro-3-(trifluoromethyl)-3b,4,4a,5-tetrahydro-1H-cyclopropa[3,4]cyclopenta[1,2-c]pyrazol-1-yl)-N—((S)-2-(3,5-difluorophenyl)-1-(6-(3-methyl-3-(methylsulfonyl)but-1-yn-1-yl)-3-(3-(methylsulfonamido)-1-(2,2,2-trifluoroethyl)-1H-indazol-7-yl)pyridin-2-yl)ethyl)acetamide] | 9.48 | 0.07
6 | CCN(c1nn(CC(F)(F)F)c2c(-c3ccc(C#CC(C)(C)S(C)(=O)=O)nc3[C@H](Cc3cc(F)cc(F)c3)NC(=O)Cn3nc(C(F)(F)F)c4c3C(F)(F)[C@@H]3C[C@H]43)ccc(Cl)c12)S(C)(=O)=O [Example 6, N—((S)-1-(3-(4-chloro-3-(N-ethylmethylsulfonamido)-1-(2,2,2-trifluoroethyl)-1H-indazol-7-yl)-6-(3-methyl-3-(methylsulfonyl)but-1-yn-1-yl)pyridin-2-yl)-2-(3,5-difluorophenyl)ethyl)-2-((3bS,4aR)-5,5-difluoro-3-(trifluoromethyl)-3b,4,4a,5-tetrahydro-1H-cyclopropa[3,4]cyclopenta[1,2-c]pyrazol-1-yl)acetamide] | > 50 | 3.3
